Patent publication US20060160887A1, “Medicinal composition” (Kyowa Hakko Kogyo Co., Ltd., priority 2003, published 2006)

Key:
[1] = tested on: A-type potassium channels; details: known from WO02/078523 and WO02/078710; cited from earlier work
[2] = tested on: premicturition contractions in rats with spinal cord injury; assay: Inhibitory activity on detrusor overactivity (cystometry, premicturition contractions) in rats with spinal cord injury; assay type: in vivo, rat; details: p.o.; for amplitude of premicturition contractions (relative value, before administration = 100) / frequency of premicturition contractions (relative value, before administration = 100): female SD rats with spinal cord injury, mean ± SE, n = 9; for effect on premicturition contractions (amplitude and frequency of premicturition contractions), in words: rats with spinal cord injury, summary of Tables 1 and 2
Source text: Spinal cord was injured in the rats.

[3] = Compound (Ia) 0.01 mg/kg, after 1 hour
[4] = Compound (Ia) 0.01 mg/kg, after 3 hours
[5] = Compound (Ia) 0.01 mg/kg, after 5 hours
[6] = Tolterodine 3 mg/kg, after 1 hour
[7] = Tolterodine 3 mg/kg, after 3 hours
[8] = Tolterodine 3 mg/kg, after 5 hours

Compound | effect on A-type potassium channels, in words [1] | amplitude of premicturition contractions (relative value, before administration = 100) [2, 3] [%] | frequency of premicturition contractions (relative value, before administration = 100) [2, 3] [%] | amplitude of premicturition contractions (relative value, before administration = 100) [2, 4] [%] | frequency of premicturition contractions (relative value, before administration = 100) [2, 4] [%] | amplitude of premicturition contractions (relative value, before administration = 100) [2, 5] [%] | frequency of premicturition contractions (relative value, before administration = 100) [2, 5] [%] | effect on premicturition contractions (amplitude and frequency of premicturition contractions), in words [2] | amplitude of premicturition contractions (relative value, before administration = 100) [2, 6] [%] | frequency of premicturition contractions (relative value, before administration = 100) [2, 6] [%] | amplitude of premicturition contractions (relative value, before administration = 100) [2, 7] [%] | frequency of premicturition contractions (relative value, before administration = 100) [2, 7] [%] | amplitude of premicturition contractions (relative value, before administration = 100) [2, 8] [%] | frequency of premicturition contractions (relative value, before administration = 100) [2, 8] [%]
CC(O)(C(=O)Nc1cccc2c1C(=O)c1sccc1CS2(=O)=O)C(F)(F)F (stereo not drawn) [Compound (I), 3,3,3-trifluoro-2-hydroxy-2-methyl-N-(5,5,10-trioxo-4,10-dihydrothieno[3,2-c][1]benzothiepin-9-yl)propanamide] | opening effect of A-type potassium channels |  |  |  |  |  |  |  |  |  |  |  |  | 
C[C@](O)(C(=O)Nc1cccc2c1C(=O)c1sccc1CS2(=O)=O)C(F)(F)F [Compound (Ia), (S)-(+)-3,3,3-trifluoro-2-hydroxy-2-methyl-N-(5,5,10-trioxo-4,10-dihydrothieno[3,2-c][1]benzothiepin-9-yl) propanamide] |  | 71.9 ± 7.3 | 61.6 ± 9.8 | 62.6 ± 7.3 | 53.2 ± 4.9 | 65.1 ± 7.2 | 56.0 ± 8.3 | inhibited premicturition contractions |  |  |  |  |  | 
Cc1ccc(O)c([C@H](CCN(C(C)C)C(C)C)c2ccccc2)c1 [Tolterodine, tolterodine, reference compound] |  |  |  |  |  |  |  | inhibited premicturition contractions | 105.9 ± 24.3 | 70.4 ± 11.6 | 79.6 ± 9.7 | 73.4 ± 8.2 | 70.3 ± 11.9 | 75.5 ± 12.0
